Consider eight molecules from patent US4840658A, “Algicidal composition” (Sumitomo Chemical Company, Limited, priority 1986, dated 1989).

Structures can show the parent of a compound that is named as a salt. Where two headings read alike, the source gives them in different places. Bounds are passed on as bounds.

In data set [1] the test system is Killifish (Oryzias latipes). Kind of data set: Acute toxicity of unsaturated higher fatty acids to killifish. The class given is in vivo. Conditions: adult killifish, 48 hr, 25° C. The procedure: Acute toxicity of the several unsaturated higher fatty acids.
Killifish (Oryzias latipes) at adult stage were acclimated to laboratory conditions in dechlorinated water. Fish were withheld from food for 24 hr prior to the test.
Graded levels of the compounds in 0.5 ml ethanol were added to glass vessels, and then mixed with 100 ml of dechlorinated fresh water. Five fish were introduced to the vessel and maintained for 48 hr at 25° C.
As a solvent control, 0.5% ethanol solution was used.

For data set [2], the system named is Heterosigma akashiwo. Kind of data set: Effect of unsaturated higher fatty acids on viability of Heterosigma akashiwo (cytolysis). The data set is classed as cell-based. Conditions: 0.5 h. The procedure: Effect of the several unsaturated higher fatty acids on viability of Heterosigma akashiwo.
(§1) Heterosigma akashiwo was incubated in PES medium under 14 hr photoperiod (3000 lux) condition at 20° C. The effects of test compounds were examined on the plankton at exponential growth phase and the medium at the phase generally contained 7×10^4 cells/ml.
(§2) The unsaturated higher fatty acid was accurately weighed and dissolved in benzene. An aliquot of the solution was transferred in a 10 ml volumetric flask. The benzene was removed in vacuo and the residue was dissolved in 0.2 ml of ethanol. A PES medium was added bit by bit to make a 10 ml solution.
(§3) Each of 1 ml of the plankton medium was transferred to the wells of a multi-dish at the cell number of 7×10^4. After good conditions of the plankton were confirmed under an inverted microscope, 1 ml of graded levels of the test solution was mixed. At specified intervals, morphological examination was conducted under the microscope, and effect concentration (EC100 ) was defined as the minimum concentration at which all of the plankton tested were cytolyzed 30 min after introduction of a test material.

For data set [3], the system named is Chaetoceros debile. Kind of data set: Effects of OTA on viability of plankton species. The data set is classed as cell-based. The procedure: as §1, §2, §3
(§4) Effect of 6Z, 9Z, 12Z, 15Z-octadecateraeonic acid (OTA) on viability of several plankton species.
(§5) The test system was the same as in Experiment 1, except test concentration of 5 and 25 ppm and test duration of 48 hr.

Data set [4] has as its system Chattonella antiqua. Kind of data set: Effects of OTA on viability of plankton species. The data set is classed as cell-based. The procedure: as §1, §2, §3, §4, §5
Data set [5] relates to Chattonella marina. Kind of data set: Effects of OTA on viability of plankton species. The class given is cell-based. The procedure: as §1, §2, §3, §4, §5
Data set [6] relates to Chlamydomonas sp. Kind of data set: Effects of OTA on viability of plankton species. The data set is classed as cell-based. The procedure: as §1, §2, §3, §4, §5
The subject of data set [7] is Cryptomonas sp. Kind of data set: Effects of OTA on viability of plankton species. The data set is classed as cell-based. The procedure: as §1, §2, §3, §4, §5
Data set [8] deals with Eutreptia sp. Kind of data set: Effects of OTA on viability of plankton species. The class given is cell-based. The procedure:
as §1, §2, §3, §4, §5

In data set [9] the test system is Gymnodinium nagasakiense. Kind of data set: Effects of OTA on viability of plankton species. The data set is classed as cell-based. The procedure:
as §1, §2, §3, §4, §5

The subject of data set [10] is Gymnodinium sanguineum. Kind of data set: Effects of OTA on viability of plankton species. The data set is classed as cell-based. The procedure:
as §1, §2, §3, §4, §5

Data set [11] concerns Hafniomonas reticulata. Kind of data set: Effects of OTA on viability of plankton species. The data set is classed as cell-based. The procedure:
as §1, §2, §3, §4, §5

Data set [12] deals with Heterocapsa triguetra. Kind of data set: Effects of OTA on viability of plankton species. The data set is classed as cell-based. The procedure:
as §1, §2, §3, §4, §5

In data set [13] the test system is Heterosigma akashiwo. Kind of data set: Effects of OTA on viability of plankton species. The data set is classed as cell-based. The procedure: as §1, §2, §3, §4, §5
For data set [14], the system named is Nephroselmis sp. Kind of data set: Effects of OTA on viability of plankton species. The data set is classed as cell-based. The procedure:
as §1, §2, §3, §4, §5

In data set [15] the test system is Olisthodiscus luteus. Kind of data set: Effects of OTA on viability of plankton species. The data set is classed as cell-based. The procedure: as §1, §2, §3, §4, §5
For data set [16], the system named is Oltmannsiella sp. Kind of data set: Effects of OTA on viability of plankton species. The class given is cell-based. The procedure: as §1, §2, §3, §4, §5
Data set [17] deals with Prorocentrum micans. Kind of data set: Effects of OTA on viability of plankton species. The class given is cell-based. The procedure: as §1, §2, §3, §4, §5
In data set [18] the test system is Pterosperma cristatum. Kind of data set: Effects of OTA on viability of plankton species. The data set is classed as cell-based. The procedure:
as §1, §2, §3, §4, §5

Data set [19] relates to Pyraminonas sp. Kind of data set: Effects of OTA on viability of plankton species. The data set is classed as cell-based. The procedure: as §1, §2, §3, §4, §5
Data set [20] relates to Skeletonema costatum. Kind of data set: Effects of OTA on viability of plankton species. The data set is classed as cell-based. The procedure:
as §1, §2, §3, §4, §5

The test system of data set [21] is Stephanopyris palmeriana. Kind of data set: Effects of OTA on viability of plankton species. The class given is cell-based. The procedure:
as §1, §2, §3, §4, §5

Data set [22] relates to Cricosphaera roscoffensis. Kind of data set: Effects of OTA on viability of plankton species. The class given is cell-based. Details: key: +: 100% cytolysis of planktons after 2 hr; ±: No cytolysis but no movement; -: No effect. The procedure:
as §1, §2, §3, §4, §5

In data set [23] the test system is Tetraselmis cordiformis. Kind of data set: Effects of OTA on viability of plankton species. The data set is classed as cell-based. Also noted: key: +: 100% cytolysis of planktons after 2 hr; ±: No cytolysis but no movement; -: No effect. The procedure:
as §1, §2, §3, §4, §5

In data set [24] the test system is marine dinoflagellates (Dinophyceae). Kind of data set: Algicidal activity against marine dinoflagellates. The class given is cell-based.
[25] abbreviates: minimum concentration at which all plankton cytolyzed 30 min after introduction, read-out: EC100.

In the case of `CC/C=C\C/C=C\C/C=C\CCCCCCCC(=O)[O-].[Na+]` [sodium linolenate], in data set [1], the LC100 is on record as > 150 ppm and the “Maximum no effect concentration” value is recorded as < 100 ppm.
For `CCC=CCC=CCC=CCC=CCC=CCCCC(=O)O` [Na salt of 5, 8, 11, 14, 17-eicosapentaenoic acid], in that order: > 50 ppm and < 30 ppm.
Consider `CC/C=C\C/C=C\C/C=C\C/C=C\CCCCC(=O)O` [OTA, 6Z, 9Z, 12Z, 15Z-octadecatetraenoic acid], for which the EC100 in data set [2] (setting [25]) was determined as 2.5 µg/mL. Further, the Effect on viability result in [3] (5 ppm), in [3] (25 ppm), in data set [4] (5 ppm), in [4] (25 ppm), in [5] (5 ppm) and in data set [5] (25 ppm) was “+ (100% cytolysis of planktons after 2 hr)” throughout. Further, the Effect on viability entry in [6] (5 ppm), in data set [6] (25 ppm), in [7] (5 ppm), in data set [7] (25 ppm), in [8] (5 ppm) and in data set [8] (25 ppm) was “+ (100% cytolysis of planktons after 2 hr)” throughout. The Effect on viability result in [9] (5 ppm), in data set [9] (25 ppm), in [10] (5 ppm), in data set [10] (25 ppm), in data set [11] (5 ppm) and in data set [11] (25 ppm) was “+ (100% cytolysis of planktons after 2 hr)” throughout. Moreover, the Effect on viability result in data set [12] (5 ppm), in [12] (25 ppm), in [13] (5 ppm), in [13] (25 ppm), in [14] (5 ppm) and in data set [14] (25 ppm) was “+ (100% cytolysis of planktons after 2 hr)” each time. Further, the Effect on viability entry in [15] (5 ppm), in data set [15] (25 ppm), in data set [16] (5 ppm), in [16] (25 ppm), in data set [17] (5 ppm) and in data set [17] (25 ppm) was “+ (100% cytolysis of planktons after 2 hr)” throughout. Also, the Effect on viability entry in data set [18] (5 ppm), in [18] (25 ppm), in data set [19] (5 ppm), in data set [19] (25 ppm), in data set [20] (5 ppm) and in data set [20] (25 ppm) was “+ (100% cytolysis of planktons after 2 hr)” throughout. Besides, the Effect on viability result is given as “+ (100% cytolysis of planktons after 2 hr)” in [21] (5 ppm); “+ (100% cytolysis of planktons after 2 hr)” in data set [21] (25 ppm); “±” in data set [22] (5 ppm); “±” in data set [22] (25 ppm); “±” in data set [23] (5 ppm); “±” in data set [23] (25 ppm). Besides, in data set [1], the LC100 is > 25 ppm. Also, the “Maximum no effect concentration” value in data set [1] was < 20 ppm. The algicidal activity result in [24] is reported as “strong algicidal activity”.
`CCCCCCCC/C=C\CCCCCCCC(=O)O` [oleic acid] gave an EC100 in data set [2] of 70 to 80 µg/mL.
As to `CCCCC/C=C\C/C=C\CCCCCCCC(=O)O` [linoleic acid], the EC100 in data set [2] (setting [25]) came out at 25 µg/mL.
In the case of `CCCCC/C=C\C/C=C\C/C=C\CCCCC(=O)O` [γ-linolenic acid], the EC100 in [2] (setting [25]) was 25 µg/mL. Also, in [1], the LC100 was > 50 ppm and the “Maximum no effect concentration” value is given as < 40 ppm.
Consider `CCC=CCC=CCC=CCC=CCC=CCCCC(=O)O` [5,8, 11, 14, 17-eicosapentaenoic acid], for which, in [2] (setting [25]), the EC100 is 2.5 µg/mL. In addition, in [1], the LC100 is reported as > 30 ppm and the “Maximum no effect concentration” value is listed as < 25 ppm.
In [2], `CCCCC/C=C\C/C=C\C/C=C\C/C=C\CCCC(=O)O` [arachidonic acid] registered an EC100 of 2.5 µg/mL.
